SMILES strings stand for the structures.

The target of this test is T1, human ferroportin (Homo sapiens, UniProt Q9NP59).
T1 construct: luciferase reporter (read with the Nano-Glo Luciferase Assay System); expressed in transfected cells; host or cells: CHO cells, stably transfected, expression induced with doxycycline
T1 sequence (Q9NP59 1-571): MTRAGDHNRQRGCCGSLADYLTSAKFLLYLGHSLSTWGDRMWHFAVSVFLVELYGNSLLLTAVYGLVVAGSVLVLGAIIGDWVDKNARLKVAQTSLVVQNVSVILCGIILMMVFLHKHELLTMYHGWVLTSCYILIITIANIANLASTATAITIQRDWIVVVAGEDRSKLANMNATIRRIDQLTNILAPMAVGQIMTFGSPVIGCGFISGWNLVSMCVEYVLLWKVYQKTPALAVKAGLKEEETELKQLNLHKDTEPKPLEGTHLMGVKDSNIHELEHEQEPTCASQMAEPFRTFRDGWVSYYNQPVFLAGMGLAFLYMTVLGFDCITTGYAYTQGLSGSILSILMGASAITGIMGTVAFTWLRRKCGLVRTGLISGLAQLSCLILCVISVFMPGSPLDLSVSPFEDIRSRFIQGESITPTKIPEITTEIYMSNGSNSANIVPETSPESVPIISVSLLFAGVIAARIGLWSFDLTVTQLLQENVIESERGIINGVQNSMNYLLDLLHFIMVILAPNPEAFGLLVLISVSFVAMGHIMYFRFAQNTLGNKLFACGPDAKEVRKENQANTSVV
In words: Biological in-vitro ferroportin internalization assay (luciferase reporter). The test is classed as cell-based. To be noted: average pEC50; stably-transfected CHO cell line expressing human ferroportin tagged to a luciferase reporter; 6 h incubation with test compound. An outline of the steps:
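Stably transfected CHO cells expressing luciferase-tagged human ferroportin, plated 24 h with ferric ammonium citrate and induced with doxycycline for 24 h. Compounds incubated 6 h, then luciferase activity measured by Nano-Glo; average pEC50 reported.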
For orientation: Reporter assays use an easily measured gene product as a stand-in for the process of interest.
For `COc1ccc(NC(=O)CN(C)c2nc(-c3cc4ncsc4cn3)nc3c2CCC3)cn1` [Compound 329, N-(6-methoxypyridin-3-yl)-2-[methyl(2-{[1,3]thiazolo[5,4-c]pyridin-6-yl}-5H,6H,7H-cyclopenta[d]pyrimidin-4-yl)amino]acetamide], the pEC50 was determined as 6.8.
In the case of `Cc1ccc(NC(=O)CN(C)c2nc(-c3cc(OCC4(O)CC4)ccn3)nc3c2CCC3)cn1` [Compound 330, 2-[(2-{4-[(1-hydroxycyclopropyl)methoxy]pyri-din-2-yl}-5H,6H,7H-cyclopenta[d]pyrimidin-4-yl)(methyl)amino]-N-(6-methylpyridin-3-yl)acetamide], the pEC50 amounted to 7.8.
Then `Cc1ccc(NC(=O)CN(C)c2nc(-c3cc(OCCO)ccn3)nc3c2C(C)(C)CC3)cn1` [Compound 331, 2-({2-[4-(2-hydroxyethoxy)pyridin-2-yl]-5,5-dimethyl-5H,6H,7H-cyclopenta[d]pyrimidin-4-yl}(methyl)amino)-N-(6-methylpyridin-3-yl)acetamide], with 8.3; and `COc1ccc(N(C)C(=O)CN(C)c2nc(-c3cc(OCCO)ccn3)nc3c2CCC3)cc1` [Compound 334, 2-({2-[4-(2-hydroxyethoxy)pyridin-2-yl]-5H,6H,7H-cyclopenta[d]pyrimidin-4-yl}(methyl)amino)-N-(4-methoxyphenyl)-N-methylacetamide], with 7.2; and `COc1ccc2c(c1)CCN2C(=O)CN(C)c1nc(-c2cc(OCCO)ccn2)nc2c1CCC2` [Compound 335, 2-({2-[4-(2-hydroxyethoxy)pyridin-2-yl]-5H,6H,7H-cyclopenta[d]pyrimidin-4-yl}(methyl)amino)-1-(5-methoxy-2,3-dihydro-1H-indol-1-yl)ethan-1-one], with 8.4.
In turn, `CN(CC(=O)NC(C)(C)C)c1nc(-c2cc3cn(C)nc3cn2)nc2c1CCC2` [Compound 336, N-tert-butyl-2-[methyl(2-{2-methyl-2H-pyrazolo[3,4-c]pyridin-5-yl}-5H,6H,7H-cyclopenta[d]pyrimidin-4-yl)amino]acetamide] yielded a pEC50 of 7.8.
`CN(CC(=O)NC1(C(F)(F)F)CC1)c1nc(-c2cc(OCC(C)(C)O)ccn2)nc2c1CCC2` [Compound 337, 2-({2-[4-(2-hydroxy-2-methylpropoxy)pyridin-2-yl]-5H,6H,7H-cyclopenta[d]pyrimidin-4-yl}(methyl)amino)-N-[1-(trifluoromethyl)cyclopropyl]aceta-mide]: the negative-log EC50 (pEC50) stood at 7.4.
For `CN(CC(=O)NC1(C(F)(F)F)CC1)c1nc(-c2cc(OC3COC3)ccn2)nc2c1CCC2` [Compound 338, 2-[methyl({2-[4-(oxetan-3-yloxy)pyridin-2-yl]-5H,6H,7H-cyclopenta[d]pyrimidin-4-yl})amino]-N-[1-(trifluoromethyl)cyclopropyl]aceta-mide], the pEC50 was 7.1.
On to `CN(CC(=O)Nc1ccc(Cl)cc1)c1nc(-c2cc(OCCO)ccn2)nc2c1CCC2` [Compound 339, N-(4-chloropehnyl)-2-({2-[4-(2-hydroxyethoxy)pyridin-2-yl]-5H,6H,7H-cyclopenta[d]pyrimidin-4-yl}(methyl)amino)acetamide], for which the pEC50 came to 8.2.
In the case of `CN(CC(=O)NC12CC(C1)C2)c1nc(-c2cc(OC3COC3)ccn2)nc2c1CCC2` [Compound 340, N-{bicyclo[1.1.1]pentan-1-yl}-2-[methyl({2-[4-(oxetan-3-yloxy)pyridin-2-yl]-5H,6H,7H-cyclopenta[d]pyrimidin-4-yl})amino]acetamide], the pEC50 turned out to be 7.7.
Molecule `CN(CC(=O)NC(C)(C)C)c1nc(-c2cc3occc3cn2)nc2c1CCC2` [Compound 341, N-tert-butyl-2-[(2-{furo[3,2-c]pyridin-6-yl}-5H,6H,7H-cyclopenta[d]pyrimidin-4-yl)(methyl)amino]acetamide] returned a pEC50 of 7.6.
Then `CN(CC(=O)N1CCCCC1)c1nc(-c2cc(O[C@@H]3CCOC3)ccn2)nc2c1CCC2` [Compound 342, 2-[methyl(2-{4-[(3R)-oxolan-3-yoxy]pyridin-2-yl}-5H,6H,7H-cyclopenta[d]pyrimidin-4-yl)amino]-1-(piperidin-1-yl)ethan-1-one], with 7.6.
Then `CN(CC(=O)N1CCCCC1)c1nc(-c2cc(O[C@H]3CCOC3)ccn2)nc2c1CCC2` [Compound 343, 2-[methyl(2-{4-[(3S)-oxolan-3-yloxy]pyridin-2-yl}-5H,6H,7H-cyclopenta[d]pyrimidin-4-yl)amino]-1-(piperidin-1-yl)ethan-1-one], with 7.7; and `COc1ccc(NC(=O)CN(C)c2nc(-c3cc(OCCN(C)C)ccn3)nc3c2CCC3)cn1` [Compound 344, 2-[(2-{4-[2-(dimethylamino)ethoxy]pyridin-2-yl}-5H,6H,7H-cyclopenta[d]pyrimidin-4-yl)(methyl)amino]-N-(6-methoxypyridin-3-yl)acetamide], with 7.6; and `CN(CC(=O)Nc1cccc(F)c1)c1nc(-c2cc(O[C@H]3C[C@@H](O)C3)ccn2)nc2c1CCC2` [Compound 345, N-(3-fluorophenyl)-2-[methyl(2-{4-[(1s,3s)-3-hydroxycyclobutoxy]pyridin-2-yl}-5H,6H,7H-cyclopenta[d]pyrimidin-4-yl)amino]acetamide], with 6.7.
The molecule `COc1ccc(NC(=O)CN(C)c2nc(-c3cc(O[C@@H]4CCOC4)ccn3)nc3c2CCC3)cn1` [Compound 346, N-(6-methoxypyridin-3-yl)-2-[methyl(2-{4-[(3R)-oxolan-3-yloxy]pyridin-2-yl}-5H,6H,7H-cyclopenta[d]pyrimidin-4-yl)amino]acetamide] returned a pEC50 of 7.6.
`COc1ccc(NC(=O)CN(C)c2nc(-c3cc(O[C@H]4CCOC4)ccn3)nc3c2CCC3)cn1` [Compound 347] returned a pEC50 of 7.6.
Regarding `CN(C)CCOc1ccnc(-c2nc3c(c(N(C)CC(=O)NC(C)(C)C)n2)CCC3)c1` [Compound 348, N-tert-butyl-2-[(2-{4-[2-(dimethylamino)ethoxy]pyridin-2-yl}-5H,6H,7H-cyclopenta[d]pyrimidin-4-yl)(methyl)amino]acetamide], the pEC50 is 8.0.
`CN(CC(=O)NC12CC(C1)C2)c1nc(-c2cc(OCCO)ccn2)nc2c1CCC2` [Compound 349, N-{bicyclo[1.1.1]pentan-1-yl}-2-({2-[4-(2-hydroxyethoxy)pyridin-2-yl]-5H,6H,7H-cyclopenta[d]pyrimidin-4-yl}(methyl)amino)acetamide] returned a pEC50 of 7.8.
For the molecule `Cc1cc(NC(=O)CN(C)c2nc(-c3cc(OCCO)ccn3)nc3c2CCC3)sn1` [Compound 350, 2-({2-[4-(2-hydroxyethoxy)pyridin-2-yl]-5H,6H,7H-cyclopenta[d]pyrimidin-4-yl}(methyl)amino)-N-(3-methyl-1,2-thiaozl-5-yl)acetamide], the pEC50 was found to be 7.7.
`CN(Cc1ncn(-c2cccc(F)c2)n1)c1nc(-c2cc(OCCO)ccn2)nc2c1CCC2` [Compound 351, 2-({2-[4-({[1-(3-fluorophenyl)-1H-1,2,4-triazol-3-yl]methyl}(methyl)amino)-5H,6H,7H-cyclopenta[d]pyrimidin-2-yl]pyridin-4-yl}oxy)ethan-1-ol] displayed a pEC50 of 7.6.
The molecule `CN(CC(=O)NC(C)(C)C)c1nc(-c2cc(-c3cnn(C)c3)ccn2)nc2c1CCC2` [Compound 352, N-tert-butyl-2-[methyl({2-[4-(1-methyl-1H-pyrazol-4-yl)pyridin-2-yl]-5H,6H,7H-cyclopenta[d]pyrimidin-4-yl})amino]acetamide] came in with a pEC50 of 7.6.

Broadly, the pEC50 is the EC50 on a negative log10 scale, so that one unit is a factor of ten. Higher therefore signals a low EC50.

The values are drawn from patent publication US11746100B2 (GLOBAL BLOOD THERAPEUTICS, INC., priority 2020, dated 2023).
